Results as given in article PMC9007336, “Identification and molecular characterization of a novel non-specific lipid transfer protein (TdLTP2) from durum wheat” (PLoS ONE, 2022).

These compounds were tested against T1, rTdLTP2 (Triticum turgidum, UniProt A0A446PDN1) (assay: hydrophobic ELISA plate coated with lipid, anti-LTP detection, one-site fit).
T1 construct: gene LTP2; mature protein expressed from pPICZalphaA in Pichia pastoris, non-tagged, gel filtration and RP-HPLC
T1 sequence (A0A446PDN1 entry or part of it): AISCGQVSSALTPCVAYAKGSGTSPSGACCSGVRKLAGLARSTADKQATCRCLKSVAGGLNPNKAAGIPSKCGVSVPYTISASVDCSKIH
Assay type: binding
Text: hydrophobic ELISA plate coated with lipid, anti-LTP detection, one-site fit on rTdLTP2 | high kd values specifically for oleic, palmitic acids and for sterol (Fig 5B and 5C) | rTdLTP2 can bind a wide range of lipids as oleic, linoleic, stearic, and palmitic acids
`CC[C@H](CC[C@@H](C)[C@H]1CC[C@H]2[C@@H]3CC=C4C[C@@H](O)CC[C@]4(C)[C@H]3CC[C@]12C)C(C)C` [B-sitosterol] gave a Kd of 300 nM. `CCCCCCCCCCCCCCCCCC(=O)O` [stearic acid] was tested, and the Kd was 470 nM. With `CCCCCCCC/C=C\CCCCCCCC(=O)O` [oleic acid] the Kd was 300 nM. For `CCCCC/C=C\C/C=C\CCCCCCCC(=O)O` [linoleic acid], the Kd was 590 nM. `CCCCCCCCCCCCCCCC(=O)O` [Palmitic acid] showed a Kd of 310 nM.
